Reference: PMC12113342, “Identification of TRPV1-Inhibitory Peptides from Takifugu fasciatus Skin Hydrolysate and Their Skin-Soothing Mechanisms” (Marine Drugs, 2025)
“And” between values parts separate entries of the source, which are not always exact repeats. Equal entries are not always repeated.

How the values were obtained:
RAW 264.7 cells = experiment: MTS cytotoxicity assay in RAW 264.7 cells; format: cell-based; details: 800 μM peptide
Excerpt: (§1) The 20 peptides with the top scores were selected and entrusted to Nanjing GenScript Biotechnology Co., Ltd., with synthetic sample purity > 95%. The process was as follows: Select the appropriate resin, pretreat it with solvent, remove the resin protective group, and expose the active site. The first protective amino acid is activated and coupled to the resin, and the amino protecting group of the amino acid is removed after washing. Repeat the “Activation–Conjugation–Deprotection” step and gradually add amino acids to lengthen the peptide chain. The peptide is cleaved from the resin with reagents such as TFA while the side-chain guard group is removed. Peptides are precipitated, washed, purified by HPLC, and identified by mass spectrometry. RAW 264.7 cells were purchased from Peking Union Medical College. The cytotoxicity of 20 candidate peptides towards RAW 264.7 cells is evaluated in an MTS assay (Promega, Madison, WI, USA), adapted from reference with modifications. RAW 264.7 cells are maintained in Dulbecco’s Modified Eagle Medium (DMEM, C11995500BT, Gibco, Grand Island, NY, USA) supplemented with 10% fetal bovine serum (F8687, Merck, Darmstadt, Germany) and 1% penicillin-streptomycin (C0222, Beyotime, Shanghai, China) at 37 °C under 5% CO2. […] NO production is measured using a NO detection kit (G2930, Promega) following the manufacturer’s protocol.

[1] = system: LPS-induced RAW 264.7 cells; experiment: Mouse cytokine array of LPS-induced RAW 264.7 cell supernatants; format: cell-based; details: T14 200 μM 6 h pretreatment, LPS 24 h; vs LPS group
Protocol: The expression levels of 40 cytokines and chemokines in RAW 264.7 cell culture supernatants were analyzed using the Proteome Profiler™ Mouse Cytokine Array Panel A (ARY006, R&D Systems, Minneapolis, MN, USA) following the manufacturer’s protocol. Supernatants from treated groups were collected, and 300 μL per sample was used for each array. All reagents were equilibrated to room temperature (26 ± 0.5 °C) prior to use. The array membrane was blocked with blocking buffer for 2 h at room temperature. During blocking, the detection antibody cocktail was mixed with the cell supernatant and incubated at room temperature for 1 h. The mixture was then transferred to the blocked membrane and incubated overnight at 4 °C. Post-incubation, the membrane was washed three times with wash buffer (≥10 min per wash). Horseradish peroxidase-conjugated streptavidin was added, and the membrane was incubated for 2 h at room temperature. After thorough washing, a chemiluminescent substrate was applied, and signals were captured using a chemiluminescence imaging system. The array images were analyzed using ImageJ software to quantify the integrated optical density.

[2] = system: TRPV1-mediated Ca2+ influx in CAP-induced HaCaT cells; experiment: Capsaicin-induced Ca2+ influx in HaCaT cells (Fluo-4AM fluorescence); format: cell-based; details: 200 μM peptide, 24 h pretreatment, CAP-stimulated HaCaT cells
Protocol: HaCaT cells were purchased from the Kunming Cell Bank, Chinese Academy of Sciences. Adapted from a previous study with modifications, HaCaT cells were cultured in DMEM supplemented with 10% fetal bovine serum and 1% penicillin-streptomycin at 37 °C under 5% CO2. Cells in the logarithmic growth phase were harvested and adjusted to a density of 1 × 10^5 CFU/mL. Cell suspensions (100 μL/well) were seeded into 96-well plates and incubated for 8–12 h. After removing the supernatant, the cells were treated with T10, T14, or T18 peptide solutions (200 μM) for 2, 6, 12, or 24 h, followed by stimulation with 100 μL CAP (IC0060, Solarbio) per well. Untreated cells served as blank controls. Intracellular Ca^2+ levels were quantified using a calcium ion assay kit (S1061S; Beyotime) according to the manufacturer’s protocol. Fluorescence images were captured using an inverted fluorescence microscope and analyzed using ImageJ software (NIH, Bethesda, MD, USA) to calculate the average fluorescence intensity.

[3] = system: NF-κB p65 in CAP-induced HaCaT cells; experiment: Western blot of NF-κB p65 in CAP-induced HaCaT cells; format: cell-based; details: varying concentrations of T14 6 h pretreatment, CAP 24 h, total cellular protein
Protocol: Adapted from a previous study with modifications, HaCaT cells were seeded into 6-well plates at a density of 2.0 × 10^5 CFU/mL and cultured for 8–12 h. Cells were pretreated with varying concentrations of T14 for 6 h, followed by co-stimulation with CAP for 24 h. After washing with Dulbecco’s phosphate-buffered saline, the cells were lysed on ice for 1 h using RIPA Lysis Buffer (R0010, Solarbio). Lysates were centrifuged at 12,000× g for 30 min at 4 °C, and the supernatants were collected. Protein concentrations were quantified using a BCA assay and normalized. Loading buffer (P1016, Solarbio) was added at a 1:3 ratio, and the samples were denatured at 95 °C for 5 min using a heat block before being stored at −20 °C.
Proteins (10 μL/lane) were resolved via sodium dodecyl sulfate-polyacrylamide gel electrophoresis and transferred onto polyvinylidene fluoride membranes. Membranes were blocked with 5% skim milk in Tris-buffered saline containing 0.1% Tween-20 for 2 h at room temperature. Primary antibodies against NF-κB p65 (8242T, Cell Signaling Technology, Danvers, MA, USA) and GAPDH (CL594-6004, Abclonal, Wuhan, China) were diluted according to the manufacturer’s guidelines and incubated overnight at 4 °C. […] Band intensities were quantified using ImageJ software.

[4] = system: LPS-induced RAW 264.7 cells; experiment: NO production in LPS-induced RAW 264.7 cells; format: cell-based; details: 200 μM peptide, 2 h pretreatment, then LPS (1 μg/mL) 24 h; vs LPS-treated group
Excerpt: as §1

[5] = system: ET-1 in LPS-induced HUVECs; experiment: ET-1 ELISA in LPS-induced HUVECs; format: cell-based, human; details: LPS 10 μg/mL 24 h; for ET-1 inhibition rate: (LPS − peptide)/(LPS − control)
Protocol: (§2) HUVEC cell were purchased from Peking Union Medical College. HUVECS were cultured according to protocols provided by the Peking Union Medical College Cell Bank. Cells were maintained in DMEM supplemented with 10% fetal bovine serum, 1% penicillin-streptomycin, 1% GlutaMAX™ (25030149, Gibco), 1% non-essential amino acids (N1250, Solarbio), and 2% sodium pyruvate (11360070, Gibco) at 37 °C under 5% CO2. Cells in the logarithmic growth phase were seeded into 24-well plates at 2 × 10^5 CFU/mL and incubated overnight. After supernatant removal, the cells were pretreated with varying concentrations of T14 peptide (50, 100, 200, 400 μM) for 6 h, followed by co-stimulation with LPS (10 μg/mL) for 24 h. Cell culture supernatants were collected, and the expression levels of ET-1 and ICAM-1 were quantified using ELISA kits (E-EL-H0064 for ET-1, E-EL-H6114 for ICAM-1; Procell, Wuhan, China) according to the manufacturer’s instructions. The inhibition rate was calculated using the following formula:Inhibition rate (%) = (LPS − peptide)/(LPS − control) × 100%

[6] = system: ICAM-1 in LPS-induced HUVECs; experiment: ICAM-1 ELISA in LPS-induced HUVECs; format: cell-based, human; details: LPS 10 μg/mL 24 h; for ICAM-1 inhibition rate: (LPS − peptide)/(LPS − control); for ICAM-1 level: control 0.43, LPS 0.57 pg/mL
Protocol: as §2

Substance	cell viability (RAW 264.7 cells)	TIMP-1 expression [1]	expression of G-CSF, GM-CSF, ICAM-1, IL-3, IL-6, IL-23 and TNF-α [1]	expression of M-CSF, IL-1α, IL-7, IL-13, IL-12P70, IL-16, IL-17, IL-27, CCL3, CCL4, CXCL2 and CCL5 [1]	inhibition rate of Ca2+ fluorescence intensity [2] [%]	p65 expression [3]	Inhibitory effect on NO production [4]	ET-1 inhibition rate ([5]; 100 μM T14, 6 h pretreatment) [%]	ET-1 inhibition rate ([5]; 400 μM T14, 6 h pretreatment) [%]	ET-1 level ([5]; 400 μM T14, 6 h pretreatment, control 2.05, LPS 2.7 pg/mL) [pg/mL]	ICAM-1 inhibition rate ([6]; 50 μM T14, 6 h pretreatment) [%]	ICAM-1 level ([6]; 50 μM T14, 6 h pretreatment) [pg/mL]	ICAM-1 inhibition rate ([6]; 400 μM T14, 6 h pretreatment)	ICAM-1 level ([6]; 400 μM T14, 6 h pretreatment) [pg/mL]
IFDL [T5, hit peptide from T. fasciatus skin hydrolysate, made by solid-phase synthesis]	proliferative effects	–	–	–	–	–	–	–	–	–	–	–	–	–
LDIF [T14, hit peptide from T. fasciatus skin hydrolysate, made by solid-phase synthesis]	–	markedly upregulated	significantly downregulated	moderate downward trend	73.1	markedly reduced p65 expression	significant inhibition	24.47	75.0	2.2	20.65	0.54	49.0% and 48.96%	0.50
LFIL [T9, hit peptide from T. fasciatus skin hydrolysate, made by solid-phase synthesis]	proliferative effects	–	–	–	–	–	–	–	–	–	–	–	–	–
